This note sets out measurements from patent publication US5925769A, “Acetylenic 1,5-diarylpyrazoles as antiinflammatory agents” (Ortho Pharmaceutical, Corp., priority 1998, dated 1999).

This assay concerns CO. As to the kind of experiment: Procedure IV: ex vivo eicosanoid synthesis assay using dogs, CO (TxB2). In kind it is in vivo. To be noted: dog, oral, 5 mg/kg. The protocol:
Adult beagle or mongrel dogs (10-15 kg) of either sex were fasted overnight prior to the initiation of each experiment. The forelimb was clipped and swabbed with an alcohol prep (70% isopropanol). Blood was drawn by venipuncture into syringes containing lithium heparin (Starstead, Newton, N.C.) immediately prior to administration of compound or vehicle and then at various intervals following dosing. The test compound was administered orally as a suspension in 0.5% methocel. At various times after dosing, blood samples were drawn and placed on an electric rocker platform to assure complete and continuous mixing. White blood cell (wbc) counts were performed using a Sysmex hematology analyzer. This was done in an effort to normalize the number of leukocytes to be stimulated with calcium ionophore. A 1.0 mL aliquot of whole blood was challenged with 50 μL of a 2.6×10^-5 M solution of calcium ionophore A23187 (Calbiochem, La Jolla, Calif.) prepared in DMSO and diluted in HBSS. After a 15 minute incubation at 37° C., the reaction was stopped by placing the samples in an ice bath (4° C.) for 5 minutes and then centrifuging at 11,000×g for 5 minutes to separate the plasma fraction from blood cells. The plasma fraction was removed, diluted in an appropriate buffer, and analyzed for the presence of LTB4 and TxB2 by standard RIA techniques.

Regarding `COc1ccc(-n2nc(C#CCN(O)C(N)=O)cc2-c2ccc(C)cc2)cc1` [Cpd 1, N-Hydroxy-N-(1(1-(4-methoxyphenyl)-5-(4-methylphenyl)pyrazol-3-yl)-1-propyn-3-yl)urea], the “% inh CO” value runs as follows: (1 h) 86%; (2 h) 82%; (4 h) 76%; (8 h) 46%; (24 h) 11%.
